# Structures can show the parent of a compound that is named as a salt.
# Molecular target: T1, DPP-IV (Homo sapiens, UniProt P27487)
# T1 construct: purchased Enzyme Systems Products SPE-01
# Assay: In vitro assay for dipeptidyl peptidase inhibition
# Assay type: biochemical
# Details: at 300 nM; n-value given in brackets
# T1 sequence (P27487 whole entry, species assumed): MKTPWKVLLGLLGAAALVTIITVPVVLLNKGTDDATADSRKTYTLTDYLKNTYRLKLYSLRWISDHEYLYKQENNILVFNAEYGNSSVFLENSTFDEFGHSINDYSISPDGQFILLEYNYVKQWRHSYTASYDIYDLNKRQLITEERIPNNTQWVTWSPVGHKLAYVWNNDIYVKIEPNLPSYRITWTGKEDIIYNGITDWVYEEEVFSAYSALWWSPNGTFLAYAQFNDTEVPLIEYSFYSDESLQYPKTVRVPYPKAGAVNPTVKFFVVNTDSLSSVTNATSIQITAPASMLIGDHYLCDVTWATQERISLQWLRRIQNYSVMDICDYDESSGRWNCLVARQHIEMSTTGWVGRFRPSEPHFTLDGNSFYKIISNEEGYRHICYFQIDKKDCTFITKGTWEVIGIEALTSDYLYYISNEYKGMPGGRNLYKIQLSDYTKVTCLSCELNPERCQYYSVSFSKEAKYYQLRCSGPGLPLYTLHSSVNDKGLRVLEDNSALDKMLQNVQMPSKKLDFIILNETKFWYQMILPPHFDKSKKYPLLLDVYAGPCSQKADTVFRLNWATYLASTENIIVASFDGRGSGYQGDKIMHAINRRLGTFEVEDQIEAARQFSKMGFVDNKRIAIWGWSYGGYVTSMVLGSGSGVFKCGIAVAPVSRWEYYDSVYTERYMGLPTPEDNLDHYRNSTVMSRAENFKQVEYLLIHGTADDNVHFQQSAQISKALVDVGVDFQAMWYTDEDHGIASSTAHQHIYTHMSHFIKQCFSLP
row,SMILES,DPP-IV Percent Inhibition at 300 nM
1,"COC1(C)CCN(c2ncnc(N3C[C@H](N)[C@@H](N4CCCCC4=O)C3)n2)CC1.O=C(O)C(F)(F)F [Example 36, 1-((3S,4S)-4-Amino-1-(4-(4-methoxy-4-methylpiperidin-1-yl)-1,3,5-triazin-2-yl)pyrrolidin-3-yl)piperidin-2-onetrifluoroacetate]",22.2%(4)
2,"N[C@H]1CN(c2ncnc(N3CC(Oc4ccc(F)c(F)c4)C3)n2)C[C@@H]1N1CCCCC1=O.O=C(O)C(F)(F)F [Example 49, 1-((3S,4S)-4-Amino-1-(4-(3-(3,4-difluorophenoxy)azetidin-1-yl)-1,3,5-triazin-2-yl)pyrrolidin-3-yl)piperidin-2-onetrifluoroacetate]",19.6%(4)
3,"COc1cc2c(cc1OC)CN(c1ncnc(N3C[C@H](N)[C@@H](N4CCCCC4=O)C3)n1)CC2.O=C(O)C(F)(F)F [Example 59, 1-((3S,4S)-4-Amino-1-(4-(6,7-dimethoxy-3,4-dihydroisoquinolin-2(1H)-yl)-1,3,5-triazin-2-yl)pyrrolidin-3-yl)piperidin-2-onetrifluoroacetate]",44.3%(4)

# Same assay, conditions: at 300 nM; n-value given in brackets; read-out: DPP-IV Percent Inhibition at 300 nM
row,SMILES,inhibition at 0.3 µM
1,"CC1(C)CN(c2ncnc(N3C[C@H](N)[C@@H](N4CCCCC4=O)C3)n2)CC1(C)C [Example 46, 1-((3S,4S)-4-amino-1-(4-(3,3,4,4-tetramethylpyrrolidin-1-yl)-1,3,5-triazin-2-yl)pyrrolidin-3-yl)piperidin-2-one]",6.8%
2,"N[C@H]1CN(c2cc(N3Cc4cc(Cl)c(Cl)cc4C3)ncn2)C[C@@H]1N1CCCCC1=O [Example 54, 1-((3S,4S)-4-amino-1-(6-(5,6-dichloroisoindolin-2-yl)pyrimidin-4-yl)pyrrolidin-3-yl)piperidin-2-one]",32.6%
3,"Cn1nc(C(F)(F)F)c2c1CCN(c1ncnc(N3C[C@H](N)[C@@H](N4CCCCC4=O)C3)n1)C2 [Example 67, 1-((3S,4S)-4-amino-1-(4-(1-methyl-3-(trifluoromethyl)-6,7-dihydro-1H-pyrazolo[4,3-c]pyridin-5(4H)-yl)-1,3,5-triazin-2-yl)pyrrolidin-3-yl)piperidin-2-one]",17.9%

# Same assay, conditions: n-value given in brackets; read-out: DPP-IV IC50
row,SMILES,IC50
1,"N#Cc1ccccc1OC1CCN(c2ncnc(N3C[C@H](N)[C@@H](N4CCCCC4=O)C3)n2)CC1 [Example 37, 2-(1-(4-((3S,4S)-3-Amino-4-(2-oxopiperidin-1-yl)pyrrolidin-1-yl)-1,3,5-triazin-2-yl)piperidin-4-yloxy)benzonitriletrifluoroacetate]",109 nM
2,"N[C@H]1CN(c2ncnc(N3CC[C@@H](O)C3)n2)C[C@@H]1N1CCCCC1=O [Example 38, 1-((3S,4S)-4-Amino-1-(4-((R)-3-hydroxypyrrolidin-1-yl)-1,3,5-triazin-2-yl)pyrrolidin-3-yl)piperidin-2-onetrifluoroacetate]",205 nM
3,"CO[C@@H]1CCN(c2ncnc(N3C[C@H](N)[C@@H](N4CCCCC4=O)C3)n2)C1 [Example 39, 1-((3S,4S)-4-Amino-1-(4-((R)-3-methoxypyrrolidin-1-yl)-1,3,5-triazin-2-yl)pyrrolidin-3-yl)piperidin-2-onetrifluoroacetate]",325 nM
4,"CO[C@H]1CCN(c2ncnc(N3C[C@H](N)[C@@H](N4CCCCC4=O)C3)n2)C1 [Example 40, 1-((3S,4S)-4-Amino-1-(4-((S)-3-methoxypyrrolidin-1-yl)-1,3,5-triazin-2-yl)pyrrolidin-3-yl)piperidin-2-onetrifluoroacetate]",566 nM
5,"CC(=O)N[C@H]1CCN(c2ncnc(N3C[C@H](N)[C@@H](N4CCCCC4=O)C3)n2)C1 [Example 41, N-((S)-1-{4-[(3S,4S)-3-Amino-4-(2-oxo-piperidin-1-yl)-pyrrolidin-1-yl]-[1,3,5]triazin-2-yl}-pyrrolidin-3-yl)-acetamidetrifluoroacetate]",90 nM
6,"N[C@H]1CN(c2ncnc(N3CC[C@@H](NC(=O)C(F)(F)F)C3)n2)C[C@@H]1N1CCCCC1=O [Example 42, N-((R)-1-(4-((3S,4S)-3-Amino-4-(2-oxopiperidin-1-yl)pyrrolidin-1-yl)-1,3,5-triazin-2-yl)pyrrolidin-3-yl)-2,2,2-trifluoroacetamidetrifluoroacetate]",80 nM
7,"CC1(O)CCN(c2ncnc(N3C[C@H](N)[C@@H](N4CCCCC4=O)C3)n2)C1 (stereo partly drawn) [Example 44, 1-((3S,4S)-4-amino-1-(4-(3-hydroxy-3-methylpyrrolidin-1-yl)-1,3,5-triazin-2-yl)pyrrolidin-3-yl)piperidin-2-onetrifluoroacetate]",316 nM
8,"N[C@H]1CN(c2ncnc(N3CCCCC3)n2)C[C@@H]1N1CCCCC1=O [Example 47, 1-[(3S,4S)-4-Amino-1-(4-piperidin-1-yl-[1,3,5]triazin-2-yl)-pyrrolidin-3-yl]-piperidin-2-onetrifluoroacetate]",315 nM
9,"N[C@H]1CN(c2cc(N3CC(F)C3)ncn2)C[C@@H]1N1CCCC1=O [Example 48, 1-((3S,4S)-4-Amino-1-(6-(3-fluoroazetidin-1-yl)pyrimidin-4-yl)pyrrolidin-3-yl)pyrrolidin-2-onedihydrochloride]",1740 nM
10,"N[C@H]1CN(c2ncnc(N3Cc4ccccc4C3)n2)C[C@@H]1N1CC(F)(F)CCC1=O [Example 50, 1-{(3S,4S)-4-amino-1-[4-(1,3-dihydro-isoindol-2-yl)-[1,3,5]triazin-2-yl]-pyrrolidin-3-yl}-5,5-difluoro-piperidin-2-one]",19.2 nM
11,"N[C@H]1CN(c2ncnc(N3Cc4ccccc4C3)n2)C[C@@H]1N1CCCCC1=O [Example 51, 1-{(3S,4S)-4-Amino-1-[4-(1,3-dihydro-isoindol-2-yl)-[1,3,5]triazin-2-yl]-pyrrolidin-3-yl}-piperidin-2-onetrifluoroacetate]",48.3 nM
12,"N[C@H]1CN(c2cc(N3Cc4ccccc4C3)ncn2)C[C@@H]1N1CCCC1=O [Example 52, 1-((3S,4S)-4-Amino-1-(6-(isoindolin-2-yl)pyrimidin-4-yl)pyrrolidin-3-yl)pyrrolidin-2-onehydrochloride]",176 nM
13,"N[C@H]1CN(c2cc(N3Cc4ccc(C(F)(F)F)cc4C3)ncn2)C[C@@H]1N1CCCCC1=O [Example 53, 1-((3S,4S)-4-amino-1-(6-(5-(trifluoromethyl)isoindolin-2-yl)pyrimidin-4-yl)pyrrolidin-3-yl)piperidin-2-onetrifluoroacetate]",92.4 nM
14,"Cc1ccc(C)c2c1CN(c1cc(N3C[C@H](N)[C@@H](N4CCCCC4=O)C3)ncn1)C2 [Example 55, 1-{(3S,4S)-4-Amino-1-[6-(4,7-dimethyl-1,3-dihydro-isoindol-2-yl)-pyrimidin-4-yl]-pyrrolidin-3-yl}-piperidin-2-one]",101 nM
15,"N[C@H]1CN(c2ncnc(N3CCc4ccccc4C3)n2)C[C@@H]1N1CCCCC1=O [Example 56, 1-{(3S,4S)-4-Amino-1-[4-(3,4-dihydro-1H-isoquinolin-2-yl)-[1,3,5]triazin-2-yl]-pyrrolidin-3-yl}-piperidin-2-onetrifluoroacetate]",85.3 nM
16,"N[C@H]1CN(c2cc(N3CCc4ccccc4C3)ncn2)C[C@@H]1N1CCCC1=O [Example 57, 1-((3S,4S)-4-Amino-1-(6-(3,4-dihydroisoquinolin-2(1H)-yl)pyrimidin-4-yl)pyrrolidin-3-yl)pyrrolidin-2-onehydrochloride]",317 nM
17,"CNS(=O)(=O)c1cccc2c1CCN(c1ncnc(N3C[C@H](N)[C@@H](N4CCCCC4=O)C3)n1)C2 [Example 58, 2-(4-((3S,4S)-3-Amino-4-(2-oxopiperidin-1-yl)pyrrolidin-1-yl)-1,3,5-triazin-2-yl)-N-methyl-1,2,3,4-tetrahydroisoquinoline-5-sulfonamidetrifluoroacetate]",11.6 nM
18,"COc1cc2c(cc1OC)CN(c1cc(N3C[C@H](N)[C@@H](N4CCCC4=O)C3)ncn1)CC2 [Example 60, 1-((3S,4S)-4-Amino-1-(6-(3,4-dihydro-6,7-dimethoxyisoquinolin-2(1H)-yl)pyrimidin-4-yl)pyrrolidin-3-yl)pyrrolidin-2-onehydrochloride]",1260 nM
19,"N[C@H]1CN(c2cc(N3CCc4ccccc4CC3)ncn2)C[C@@H]1N1CCCC1=O [Example 61, 1-((3S,4S)-4-Amino-1-(6-(1,2,4,5-tetrahydrobenzo[d]azepin-3-yl)pyrimidin-4-yl)pyrrolidin-3-yl)pyrrolidin-2-onehydrochloride]",787 nM
20,"N[C@H]1CN(c2cc(N3CCc4ncsc4C3)ncn2)C[C@@H]1N1CCCC1=O [Example 62, 1-((3S,4S)-4-Amino-1-(6-(6,7-dihydrothiazolo[5,4-c]pyridin-5(4H)-yl)pyrimidin-4-yl)pyrrolidin-3-yl)pyrrolidin-2-onedihydrochloride]",640 nM
21,"N[C@H]1CN(c2cc(N3CCc4cncnc4C3)ncn2)C[C@@H]1N1CCCC1=O [Example 63, 1-((3S,4S)-4-Amino-1-(6-(5,6-dihydropyrido[3,4-d]pyrimidin-7(8H)-yl)pyrimidin-4-yl)pyrrolidin-3-yl)pyrrolidin-2-onedihydrochloride]",1990 nM
22,"N[C@H]1CN(c2cc(N3CCc4nc[nH]c4C3)ncn2)C[C@@H]1N1CCCC1=O [Example 64, 1-((3S,4S)-4-Amino-1-(6-(6,7-dihydro-3H-imidazo[4,5-c]pyridin-5(4H)-yl)pyrimidin-4-yl)pyrrolidin-3-yl)pyrrolidin-2-onedihydrochloride]",2480 nM
23,"N[C@H]1CN(c2cc(N3CCc4sccc4C3)ncn2)C[C@@H]1N1CCCC1=O [Example 65, 1-((3S,4S)-4-Amino-1-(6-(6,7-dihydrothieno[3,2-c]pyridin-5(4H)-yl)pyrimidin-4-yl)pyrrolidin-3-yl)pyrrolidin-2-onehydrochloride]",547 nM
24,"N[C@H]1CN(c2cc(N3CCc4[nH]ncc4C3)ncn2)C[C@@H]1N1CCCC1=O [Example 66, 1-((3S,4S)-4-Amino-1-(6-(6,7-dihydro-1H-pyrazolo[4,3-c]pyridin-5(4H)-yl)pyrimidin-4-yl)pyrrolidin-3-yl)pyrrolidin-2-onedihydrochloride]",395 nM
25,"N[C@H]1CN(c2ncnc(N3CCS(=O)(=O)CC3)n2)C[C@@H]1N1CCCCC1=O [Example 68, 1-{(3S,4S)-4-Amino-1-[4-(1,1-dioxo-6-thiomorpholin-4-yl)-[1,3,5]triazin-2-yl]-pyrrolidin-3-yl}-piperidin-2-onetrifluoroacetate]",141 nM

# Source: patent publication US7485641B2, “Substituted 3-amino-pyrrolidino-4-lactams” (Pfizer, Inc., priority 2006, dated 2009)
